# Tests used:
# [1] = test system: asthmatic patients; details: cited from earlier work
# [2] = test system: children with an acute exacerbation of asthma; details: oral prednisone, after 7 days; pediatric, mean age 8.0 years; cited from earlier work
# [3] = test system: adult patients with acute asthma; details: after seven to ten days of oral prednisone; cited from earlier work
# [4] = test system: adults with mild asthma exacerbations; details: after 16 days of tapering oral prednisone; from 73% at onset of treatment; cited from earlier work
# [5] = test system: adults following an acute asthma exacerbation; details: oral prednisone, over seven to ten days; cited from earlier work
# [6] = test system: patients with acute exacerbations of asthma; assay: Asthma diary symptom scores in double-blind, randomized, placebo-controlled study; assay type: in vivo, human
# Procedure: (§1) Patients are centrally randomized (1:1) using computer-generated codes to receive blinded treatment with either oral telithromycin 800 mg once daily (two 400 mg capsules) or placebo (two capsules identical to those containing active treatment) for ten days using a proprietary Interactive Voice Recognition System to balance the treatment assignments within each study center. The first clinic visit (Visit 1), occurring within 24 hours of initial presentation is considered to be the study baseline. At baseline, patients are randomized to telithromycin or placebo. Telephone contact is made at 24-72 hours post-randomization to review concomitant medications taken and adverse events. Visit 2 is at the end of treatment (Days 11-14), Visit 3 is a post-treatment visit (Day 28 [±3 days]), and Visit 4 is the final visit (Day 42 [±3 days]). At each visit, patients undergo respiratory examinations, pulmonary function tests, health outcome assessments, and have a review of adverse events. Vital signs and concomitant medications are also recorded. Spontaneous or induced sputum samples nasopharyngeal swabs, and serum for serology for atypical pathogens are collected at Visits 1 and 3. Patients receiving at least one dose of study treatment and having one primary efficacy endpoint value are included in the intention to treat (ITT) population.
# (§2) Asthma symptoms are measured using a modified version of a previously published diary card symptom score in which patients rate the frequency and severity of symptoms on a 7-point Likert scale. [see Santanello N. C., Barber B. L., Reiss T. F, Friedman B. S., Juniper E. F., Zhang J., Measurement Characteristics of Two Asthma Symptom Diary Scales for Use in Clinical Trials. Eur. Respir. J. 1997; 10:646-651]. Daily patient diaries are also used to record asthma symptoms, study treatment dosing, albuterol use, and other concomitant medications. Patient's home PEF values are also recorded in triplicate twice daily.
# (§3) Efficacy endpoints are analyzed using an analysis of covariance (ANCOVA) model using factors for treatment, study center (investigator), treatment-by-center interaction, and baseline as covariates. Longitudinal analyses are based on the average over the 6-week study period. The treatment group means and the between-group differences are estimated using the ANCOVA model and between-group tests are used to compare telithromycin with placebo. The primary efficacy assessment time point is Visit 2 (end of treatment; Days 11-14).
# Improvements in asthma symptoms assessed by the patients during the ten days of study treatment are analyzed using analysis of variance (ANOVA)/ANCOVA. Time to 50% reduction of asthma symptoms is summarized for treatment groups using a Kaplan-Meier procedure.
# [7] = test system: patients with acute exacerbations of asthma; assay: In-clinic pulmonary function tests (PEF, FEV1, FVC, FEF25-75%); assay type: in vivo, human
# Procedure: as §1
# PEF in liter/min, FEV1 in liters, FVC in liters, and FEF25-75% in liters/sec are recorded at clinic visits and are performed according to American Thoracic Society (ATS) standards. [see American Thoracic Society. Standardization of Spirometry. Am. J. Respir. Crit. Care Med. 1995; 152: 1107-1136].
# as §3
# In the models used, treatment effect is estimated while adjusting for the factor of center and for baseline values as covariates. This adjusted model accounts for the difference in the number of patients enrolled at each center. All mean data for efficacy outcomes are presented as least square (LS) means as they result from this adjusted model.
# [8] = test system: patients with acute exacerbations of asthma; assay: Morning home PEF recorded on diary cards; assay type: in vivo, human; details: patient-recorded; placebo 66.8 L/min
# Procedure: as §2
# [9] = test system: patients with acute exacerbations of asthma; assay: Tolerability and safety assessment (adverse-event recording); assay type: in vivo, human
# Procedure: Clinical safety is assessed in all patients by adverse-event recording and standard monitoring. Patients who receive at least one dose of […] and at least one safety assessment during treatment are considered evaluable for safety. All spontaneously reported adverse events and those identified by investigator observation are recorded and evaluated in terms of severity and causality.
# [10] = test system: C. pneumoniae; details: mice with acute C. pneumoniae infection; cited from earlier work
smiles,measurement,setting,value
CC[C@H]1OC(=O)[C@H](C)[C@@H](O[C@H]2C[C@@](C)(OC)[C@@H](O)[C@H](C)O2)[C@H](C)[C@@H](O[C@@H]2O[C@H](C)C[C@H](N(C)C)[C@H]2O)[C@](C)(OC)C[C@@H](C)C(=O)[C@H](C)[C@@H](O)[C@]1(C)O [clarithromycin],severity of bronchial hyperresponsiveness,[1],reduce the severity of bronchial hyperresponsiveness
C[C@]12C=CC(=O)C=C1CC[C@@H]1[C@@H]2C(=O)C[C@@]2(C)[C@H]1CC[C@]2(O)C(=O)CO [prednisone],mean increase in FEF25-75%,[2],0.41 L/s
same,mean increase in FEV1,[2],0.37 L
same,mean increase in FVC,[2],0.45 L
same,mean increase in PEF,[2],78 L/min
same,PEF improvement,[3],46 L/min
same,PEF % predicted after treatment,[4],85%
same,"FEV1 increase, measured after bronchodilator use",[5],0.55 L
same,"PEF increase, measured after bronchodilator use",[5],77 L/min
CC[C@H]1OC(=O)[C@H](C)C(=O)[C@H](C)[C@@H](O[C@@H]2O[C@H](C)C[C@H](N(C)C)[C@H]2O)[C@](C)(OC)C[C@@H](C)C(=O)[C@H](C)[C@H]2N(CCCCn3cnc(-c4cccnc4)c3)C(=O)O[C@]12C [telithromycin],median time to a 50% reduction in symptoms,"[6]; Kaplan-Meier, placebo 8 days, P=0.031",5 days
same,mean change in symptom score from baseline over the study period,"[6]; entire 6-week observation period, 800 mg once daily for ten days",−51%
same,mean percent reduction in symptom severity from baseline to the end of treatment,"[6]; oral 800 mg once daily for ten days, added to usual care, ITT N=126",−51%
same,proportion of patients with symptom-free days during the treatment period,"[6]; placebo 8%, P=0.006",16%
same,mean difference between treatments in change in symptom score over the study period,"[6]; telithromycin vs placebo, 6-week period, 95% CI −24.75, −0.89%, P=0.035",−13%
same,"mean difference between treatments in percent reduction in symptom severity, baseline to end of treatment","[6]; telithromycin vs placebo, 95% CI −36.64, −7.90%, P=0.003",−22%
same,"Mean change from baseline to end of treatment, FEF25-75%","[7]; 800 mg/day for ten days, N=126",0.85 L/s
same,"Mean change from baseline to end of treatment, FVC","[7]; 800 mg/day for ten days, N=126",0.58 L
same,"Mean change from baseline to end of treatment, FEV1","[7]; 800 mg/day for ten days, N=126, LS mean, Visit 2",0.63 L
same,"Mean change from baseline to end of treatment, PEF","[7]; 800 mg/day for ten days, N=126, in-clinic",115.8 L/min
same,"mean improvement in FEV1, subgroup with infection at baseline","[7]; C. pneumoniae and/or M. pneumoniae infection at baseline, 61 telithromycin patients",0.67 L
same,"mean improvement in FEV1, subgroup without evidence of infection","[7]; no evidence of C. pneumoniae/M. pneumoniae infection, 44 telithromycin patients",0.65 L
same,"difference between treatments in FEV1 improvement, subgroup with infection at baseline","[7]; telithromycin vs placebo, 95% CI 0.11, 0.47 L, P=0.002",0.29 L
same,"difference between treatments in FEV1 improvement, subgroup without evidence of infection","[7]; telithromycin vs placebo, 95% CI −0.17, 0.52 L, P=0.309",0.18 L
same,"Difference between treatments in mean change, FEV1","[7]; telithromycin vs placebo, P=0.001",0.29 L
same,"Difference between treatments in mean change, FEF25-75%","[7]; telithromycin vs placebo, P=0.004",0.40 L/s
same,"Difference between treatments in mean change, FVC","[7]; telithromycin vs placebo, P=0.006",0.27 L
same,"Difference between treatments in mean change, PEF","[7]; telithromycin vs placebo, P=0.036",26.9 L/min
same,improvement in morning home PEF from baseline over the treatment period (mean),[8],78.3 L/min
same,tolerability,[9]; 800 mg once daily for ten days,well tolerated
same,"TEAEs considered possibly related to treatment, % of patients",[9]; 132 patients evaluable for safety,20.5%
same,frequency of TEAEs,"[9]; 132 patients evaluable for safety, placebo 39.7%",38.6%
same,diarrhea possibly related to treatment,[9]; placebo 3.8%,9.8%
same,culture and PCR positivity in the lungs,[10],reduce culture and PCR positivity

# From patent US20080070846A1, “TREATING ACUTE EXACERBATIONS OF ASTHMA USING A KETOLIDE” (Aventis Pharmaceuticals Inc, priority 2004, published 2008)
